Test: in vitro
Conditions: rat, microsomes
Description: Buffer solutions were prepared as follows: • a. Buffer A: 0.1 M monobasic potassium phosphate buffer containing 1.0 mM EDTA. • b. Buffer B: 0.1 M dibasic potassium phosphate buffer containing 1.0 mM EDTA. • c. Buffer C: 0.1 M potassium phosphate buffer containing 1.0 mM EDTA was adjusted to pH 7.4 by titrating 700 mL of Buffer B with Buffer A while monitoring with a pH meter. • 2. An NADPH stock solution (6 mM) was prepared by dissolving NADPH into Buffer C. • 3. Spiking solutions were prepared for the reference compound (ketanserin) and the test compounds as follows: • a. A 500 μM spiking solution of the reference compound (ketanserin) was generated by adding 10 μL of a 10 mM stock solution of ketanserin in DMSO into 190 μL acetonitrile. A 1.5 μM spiking solution in microsomes (0.75 mg/mL) was generated by adding 1.5 μL of the 500 μM spiking solution and 18.75 μL of 20 mg/mL rat liver microsomes into 479.75 μL of Buffer C while cooling with ice. • b. […] A 0.75 μM spiking solution in microsomes (0.75 mg/mL) was generated by adding 1.5 μL of the 250 μM spiking solution and 18.75 μL of 20 mg/mL rat liver microsomes into 479.75 μL of Buffer C while cooling with ice. • 4. 30 μL of 1.5 μM spiking solution containing 0.75 mg/mL microsomes solution was dispensed into assay plates designated for different time points (0 min, 5 min, 15 min, 30 min, and 45 min; or 0 min, 15 min, 30 min, 45 min, and 60 min as shown in Tables 1-5 below) while cooling with ice. • 5. For the 0 min time point assay plate, 135 μL of ACN containing IS followed immediately by 15 μL of the 6 mM NADPH stock solution were added to the wells of the 0 min assay plate. • 6. All assay plates other than the 0 min assay plate were pre-incubated at 37° C. for 5 min, and then 15 μL of the 6 mM NADPH stock solution was added to the wells of the assay plates to start the reaction and timing. At the appropriate time (5 min, 15 min, 30 min, 45 min, or 60 min), 135 μL of ACN containing IS was added to the wells of the corresponding assay plates, respectively, to stop the reaction. • 7. After quenching, the plates were shaken in a vibrator (IKA, MTS 2/4) for 10 min (600 rpm/min) and then centrifuged at 5594 g for 15 min (Thermo Multifuge×3R). • 8. After centrifugation, 50 μL of the supernatant from each well was transferred into a 96-well sample plate containing 50 μL of ultrapure water (Millipore, ZMQS50F01) for LC/MS analysis.

## [2H]C1([2H])NC([2H])([2H])C([2H])(c2ccc(-n3cc4cccc(C(N)=O)c4n3)cc2)C([2H])([2H])C1([2H])[2H] (racemic) [Example 3, 2-(4-(piperidin-3-yl-2,2,3,4,4,5,5,6,6-d9)phenyl)-2H-indazole-7-carboxamide]
0 h, 0.5 µM, pH 7.4
  Percent Remaining (%) 0 min: 100.00%
0.25 h, 0.5 µM, pH 7.4
  Percent Remaining (%) 15 min: 92.77%
0.5 h, 0.5 µM, pH 7.4
  Percent Remaining (%) 30 min: 82.19%
0.75 h, 0.5 µM, pH 7.4
  Percent Remaining (%) 45 min: 74.60%
1 h, 0.5 µM, pH 7.4
  Percent Remaining (%) 60 min: 69.31%
pH 7.4, Clint
  CLint scaled at 0.5 µM: 22.7 mL/min/kg
pH 7.4, T1/2
  half-life at 0.5 µM: 1.82 h
